From the NIST ThermoML archive (doi:10.1021/je060271a)

Conditions: 303.14 K, Liquid, Vibrating tube method

CCCCCCC(=O)OCC(COC(=O)CCCCCC)(COC(=O)CCCCCC)COC(=O)CCCCCC [pentaerythritol tetraheptanoate]
Conditions | mass density [kg/m3]
3038.7 kPa | 972.7
3058.7 kPa | 972.6
3082.4 kPa | 972.7
3102.9 kPa | 972.7
3122.8 kPa | 972.6
3144 kPa | 972.7
3168.8 kPa | 972.6
3190.1 kPa | 972.7
3211.6 kPa | 972.8
3237.6 kPa | 972.8
3258.9 kPa | 972.7
3281.4 kPa | 972.8
3307.8 kPa | 972.7
3330.1 kPa | 972.8
3352.7 kPa | 972.9
3380 kPa | 972.9
3403.4 kPa | 972.9
3426.8 kPa | 973
3450.4 kPa | 972.9
3479.2 kPa | 972.9
3502.9 kPa | 972.9
3527.3 kPa | 972.9
3557 kPa | 973
3581.9 kPa | 973.1
3607.2 kPa | 972.9
3632.9 kPa | 973
3663.7 kPa | 973
3689.2 kPa | 973.1
3719.9 kPa | 973.1
3746.2 kPa | 973
3772.9 kPa | 973.1
3800.2 kPa | 973.1
3832.6 kPa | 973.2
3860.2 kPa | 973.1
3888.8 kPa | 973.1
3922.9 kPa | 973.2
3951.5 kPa | 973.3
3980.6 kPa | 973.3
4009.8 kPa | 973.2
4044.8 kPa | 973.2
4074.3 kPa | 973.3
4103.9 kPa | 973.4
4139.9 kPa | 973.4
4170.1 kPa | 973.4
4200.4 kPa | 973.3
4233.1 kPa | 973.3
4239.8 kPa | 973.3
4241.6 kPa | 973.4
4243.3 kPa | 973.4
4244.7 kPa | 973.5
4245.2 kPa | 973.4
4245.9 kPa | 973.5
4246.6 kPa | 973.4
4246.8 kPa | 973.5
4247.1 kPa | 973.4
4247.3 kPa | 973.4
4247.5 kPa | 973.5
4249.4 kPa | 973.4
4257.2 kPa | 973.5
4271.5 kPa | 973.3
4283.5 kPa | 973.5
4296.1 kPa | 973.4
4311.4 kPa | 973.5
4322.4 kPa | 973.6
4342.7 kPa | 973.4
4361.4 kPa | 973.4
4372.3 kPa | 973.5
4382.1 kPa | 973.5
4393.9 kPa | 973.6
4403.8 kPa | 973.4
4413.6 kPa | 973.4
4425.4 kPa | 973.5
4435.5 kPa | 973.5
4445.2 kPa | 973.5
4455.2 kPa | 973.5
4467.5 kPa | 973.6
4476.8 kPa | 973.6
4487.4 kPa | 973.6
4499.3 kPa | 973.5
4509.6 kPa | 973.5
4519.6 kPa | 973.6
4529.8 kPa | 973.5
4541.2 kPa | 973.6
4551.3 kPa | 973.5
4563.6 kPa | 973.6
4573.1 kPa | 973.6
4582.4 kPa | 973.6
4592.3 kPa | 973.7
4605.6 kPa | 973.6
4631.8 kPa | 973.7
4653.8 kPa | 973.6
4676.1 kPa | 973.5
4703.4 kPa | 973.7
4724.4 kPa | 973.8
4743.1 kPa | 973.7
4764.9 kPa | 973.7
4783.4 kPa | 973.6
4801.9 kPa | 973.8
4820.6 kPa | 973.8
4843.5 kPa | 973.7
4862.8 kPa | 973.7
4882.7 kPa | 973.8
4901.8 kPa | 973.6
4925 kPa | 973.8
4944 kPa | 973.8
4964.4 kPa | 973.9
4984.3 kPa | 974
5008.5 kPa | 973.8
5029 kPa | 973.9
5050.1 kPa | 974
5075 kPa | 973.9
5095.7 kPa | 973.9
5116.9 kPa | 974.1
5138.3 kPa | 974
5164.1 kPa | 974
5185.5 kPa | 974.1
5207.3 kPa | 974
5229.7 kPa | 974.1
5256.1 kPa | 974.1
5277.9 kPa | 974
5304.9 kPa | 974
5328.1 kPa | 974.1
5350.7 kPa | 974.1
5374.3 kPa | 974.1
5402.1 kPa | 974.2
5425.6 kPa | 974.1
5450.7 kPa | 974.3
5475.8 kPa | 974.1
5504.5 kPa | 974.2
5528.9 kPa | 974.2
5554 kPa | 974.3
5583.9 kPa | 974.3
5609.1 kPa | 974.3
5634.4 kPa | 974.3
5665 kPa | 974.3
5690.9 kPa | 974.2
5717.2 kPa | 974.3
5749 kPa | 974.4
5776.5 kPa | 974.3
5804.6 kPa | 974.3
5832 kPa | 974.4
5860 kPa | 974.4
5888.5 kPa | 974.4
5922.7 kPa | 974.5
5951.6 kPa | 974.3
5980.6 kPa | 974.5
6015.7 kPa | 974.6
6045.3 kPa | 974.5
6075.7 kPa | 974.4
6106.1 kPa | 974.5
6142.6 kPa | 974.5
6174.1 kPa | 974.6
6207 kPa | 974.5
6238.7 kPa | 974.6
6270.8 kPa | 974.6
6309.5 kPa | 974.6
6342.4 kPa | 974.7
6375.9 kPa | 974.7
6416.1 kPa | 974.8
6447.8 kPa | 974.8
6476.3 kPa | 974.7
6510.3 kPa | 974.7
6539.5 kPa | 974.8
6568.7 kPa | 974.8
6598.1 kPa | 974.9
6633.7 kPa | 974.8
6664.4 kPa | 974.9
6695.2 kPa | 974.8
6725.8 kPa | 974.8
6762.4 kPa | 974.9
6793.3 kPa | 975
6825.6 kPa | 975
6857.2 kPa | 975
6895.7 kPa | 975
6928 kPa | 975
6961.5 kPa | 975
7001.6 kPa | 975.1
7035.6 kPa | 975.2
7070.4 kPa | 975.2
7104.5 kPa | 975.1
7139.2 kPa | 975.2
7181.2 kPa | 975.2
7216.8 kPa | 975.2
7253.9 kPa | 975.3
7291.4 kPa | 975.3
7336.6 kPa | 975.2
7375.1 kPa | 975.4
7414.5 kPa | 975.3
7451.6 kPa | 975.3
7469.5 kPa | 975.4
7494.9 kPa | 975.4
7522.2 kPa | 975.3
7549.5 kPa | 975.4
7582.3 kPa | 975.4
7609.7 kPa | 975.5
7637.3 kPa | 975.6
7671.1 kPa | 975.5
7698.9 kPa | 975.6
7728.1 kPa | 975.5
7757.4 kPa | 975.5
7793.5 kPa | 975.6
7823.2 kPa | 975.6
7858.2 kPa | 975.7
7882.7 kPa | 975.7
7904.3 kPa | 975.7
7925.9 kPa | 975.6
7946.9 kPa | 975.6
7972.8 kPa | 975.7
7994 kPa | 975.6
8016.3 kPa | 975.8
8042.7 kPa | 975.7
8064.3 kPa | 975.8
8087 kPa | 975.8
8113.3 kPa | 975.8
8135.7 kPa | 975.8
8158.3 kPa | 975.8
8181.6 kPa | 975.8
8209 kPa | 975.8
8232.1 kPa | 975.9
8255.4 kPa | 976
8283 kPa | 975.9
8305.8 kPa | 975.8
8328.7 kPa | 975.9
